Assay results reported in patent US8158764B2 (priority 2006, dated 2012).
Several values for one entry are separate records, joined by “and”; a condition that tells them apart may be missing. Equal entries are not always repeated.

Assays:
κ receptors = biological target: T1, κ receptors (Cavia porcellus, UniProt P41144); assay: Affinity to κ receptors, [3H]U-69593 binding on cerebellum homogenates; parameters: species or system guinea-pigs; conditions: for Ki: guinea-pig cerebellum, 0.7 nM [3H]U-69593, read-out: Ki (nM) κ Receptor
T1 construct: homogenates of guinea-pigs cerebellum (250 μg of protein); from tissue; host or cells: guinea-pig cerebellum
Experimental: (§1) The non specific binding was determined in the presence of 10 μM of naltrexone. After incubation, samples were rapidly filtered through glass fibers (GF/B, Packard), previously incubated with 0.3% of polyethyleneimine and rinsed several times with 50 mM of cold Tris-HCl using a “96-sample cell harvester” (Unifilter, Packard). Filters were afterwards dried and the radioactivity was counted.

human μ receptors = biological target: T2, human μ receptors (Homo sapiens, UniProt P35372); assay: biochemical; assay type: binding
T2 construct: expressed in transfected cells; host or cells: HEK-293

[1] = Tail flick test (analgesic activity); assay type: in vivo, mouse; parameters: AUC, tail flick test: unit not given here; conditions: for duration of the analgesic activity compared with morphine: in words, tail flick and hot plate tests; for ED50 / Max Effect (time), tail flick test: mouse, intravenous
Experimental: The “Tail flick” test (test of D'Amour & Smith, 1941, Pharmacol Exp Ther; 72: 74-79) consists in placing the tail of a mouse, after administration of a product, in front of an infrared source in order to produce a nociceptive stimulus (a surface temperature of 55° C.). The reaction time (RT) of the mouse (latency between the start of the light beam and the moment the mouse withdraws its tail) was measured in duplicate at 8 times spread from […] after administration of the product. A maximal 10 second-period has been chosen as the maximal reaction time in order to avoid any tissue damage for the animal.
Products were intravenously-administered at doses comprised between 0.5 and 8 mg/kg (8 mice per group).
Two measures of reaction time were realized before administration of the product for each mouse so as to establish a base line.
The MPE % represents the percentage of possible maximal effect and corresponds to the following formula: […]

[2] = Hot plate test (analgesic activity); assay type: in vivo; conditions: mouse, intravenous
κ receptor [3] = biological target: T3, κ receptor (Oryctolagus cuniculus, UniProt G1SJ19); assay: Antagonist activity on κ receptor, electrically stimulated rabbit vas deferens; assay type: biochemical
T3 construct: using prostatic segments of rabbits' deferens vas; from tissue; host or cells: rabbit vas deferens (prostatic segments)
Experimental: The agonist/antagonist activity on K receptors of compounds according to the invention was estimated by using prostatic segments of rabbits' deferens vas, stretched and stimulated by an electric current of 0.1 Hz during 1 msec.
In order to test an antagonist activity, a response control (peak of contraction of the tissue) was obtained by exposing tissues to a high concentration (0.1 μM) in specific agonist U-69593.
Tissues were then exposed to growing concentrations of the compound according to the invention or to the specific agonist. The various concentrations were cumulated and each concentration was maintained in contact with the tissue until a stable response was obtained or up to […].
An antagonist response was observed when the amplitude of peaks of contractions provoked by electric stimulation was similar to the one observed with the nor-BNI.
The measured parameter was a maximal change of amplitude of the peaks of contractions provoked by electric stimulation with various concentrations of the compound.

δ receptors = biological target: T4, δ receptors (Homo sapiens, UniProt P41143); assay: Affinity to δ receptors, [3H]DADLE binding on cell membrane homogenates (CHO cells)
T4 construct: expressed in transfected cells; host or cells: CHO
Experimental: as §1

κ receptor [4] = biological target: T3, κ receptor; assay type: biochemical, rabbit
[5] = Intestinal transit in mice
[6] = Activity and toxicity of the 3-methoxy derivative (test not specified); conditions: in words

T1 sequence (P41144 whole entry): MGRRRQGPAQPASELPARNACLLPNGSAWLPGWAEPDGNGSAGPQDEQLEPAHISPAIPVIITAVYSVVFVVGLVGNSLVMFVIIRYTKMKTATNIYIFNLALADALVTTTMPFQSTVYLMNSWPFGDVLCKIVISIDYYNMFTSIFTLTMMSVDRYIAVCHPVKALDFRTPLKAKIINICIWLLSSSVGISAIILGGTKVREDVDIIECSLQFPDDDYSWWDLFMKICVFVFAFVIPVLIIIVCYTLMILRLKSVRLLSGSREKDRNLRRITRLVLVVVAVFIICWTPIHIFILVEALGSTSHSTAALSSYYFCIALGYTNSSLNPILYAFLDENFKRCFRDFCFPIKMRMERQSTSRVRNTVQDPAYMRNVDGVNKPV
T2 sequence (P35372 whole entry): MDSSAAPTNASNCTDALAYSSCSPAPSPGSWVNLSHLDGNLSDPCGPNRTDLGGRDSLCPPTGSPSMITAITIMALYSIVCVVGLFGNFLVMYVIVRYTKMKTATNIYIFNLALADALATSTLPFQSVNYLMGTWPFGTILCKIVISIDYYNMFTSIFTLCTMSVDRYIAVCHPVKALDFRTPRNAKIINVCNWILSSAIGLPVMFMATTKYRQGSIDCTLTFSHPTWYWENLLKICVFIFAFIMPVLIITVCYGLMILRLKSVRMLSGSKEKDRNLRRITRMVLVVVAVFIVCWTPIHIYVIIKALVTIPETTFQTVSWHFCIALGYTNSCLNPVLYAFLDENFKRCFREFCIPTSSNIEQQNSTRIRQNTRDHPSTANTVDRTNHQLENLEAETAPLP
T3 sequence (G1SJ19 1-383): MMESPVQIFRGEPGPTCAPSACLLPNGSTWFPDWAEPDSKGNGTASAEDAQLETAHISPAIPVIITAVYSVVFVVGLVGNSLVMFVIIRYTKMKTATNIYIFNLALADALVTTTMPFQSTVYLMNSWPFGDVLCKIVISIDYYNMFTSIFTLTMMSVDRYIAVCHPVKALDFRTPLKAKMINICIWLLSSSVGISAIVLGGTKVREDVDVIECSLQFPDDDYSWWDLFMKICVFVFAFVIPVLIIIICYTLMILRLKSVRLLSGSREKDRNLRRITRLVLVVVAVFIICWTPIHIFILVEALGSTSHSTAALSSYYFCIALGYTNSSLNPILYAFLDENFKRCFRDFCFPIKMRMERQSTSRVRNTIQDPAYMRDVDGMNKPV
T4 sequence (P41143 whole entry): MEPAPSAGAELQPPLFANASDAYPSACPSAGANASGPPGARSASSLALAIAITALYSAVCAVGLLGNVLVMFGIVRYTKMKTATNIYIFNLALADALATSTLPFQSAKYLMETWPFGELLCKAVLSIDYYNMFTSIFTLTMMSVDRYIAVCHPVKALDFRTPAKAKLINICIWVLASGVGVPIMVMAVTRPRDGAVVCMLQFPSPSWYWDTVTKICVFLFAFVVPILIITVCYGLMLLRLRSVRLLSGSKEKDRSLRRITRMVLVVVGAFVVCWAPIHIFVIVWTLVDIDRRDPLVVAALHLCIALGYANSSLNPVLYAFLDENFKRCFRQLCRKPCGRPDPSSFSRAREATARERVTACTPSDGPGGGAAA

CCOc1ccc2c3c1OC1C(OC4OC(C(=O)NCCS)C(O)C(O)C4O)C=CC4C(C2)N(C)CCC341 (centres unmarked) [Compound M3Et-6G-cya]
Ki (κ receptors): 220 nM
Ki (human μ receptors): 13 nM
AUC, tail flick test ([1]; dose 1 mg/kg iv): 1047.85
AUC, tail flick test ([1]; dose 2 mg/kg iv): 2538.93
AUC, tail flick test ([1]; dose 4 mg/kg iv): 5012.90
AUC, tail flick test ([1]; dose 8 mg/kg iv): 6059.22
duration of the analgesic activity compared with morphine [1]: much longer
ED50 [1]: 2.04 mg/kg
Max Effect (time), tail flick test [1]: 120 min
ED50 [2]: 2.75 mg/kg
Effet max (time), hot plate test [2]: 120 min

Oc1ccc2c3c1O[C@H]1c4[nH]c5c(c4C[C@@]4(O)[C@@H](C2)N(CC2CC2)CC[C@]314)C[C@@]1(O)[C@H]2Cc3ccc(O)c4c3[C@@]1(CCN2CC1CC1)[C@H]5O4 [nor-BNI, nor-binaltorphimine, reference compound]
antagonist activity: response in % of the response control at U-69593 (0.1 μM) (κ receptor [3]; compound 0.1 nM): 80%
antagonist activity: response in % of the response control at U-69593 (0.1 μM) (κ receptor [3]; compound 0.3 nM): 55%
antagonist activity: response in % of the response control at U-69593 (0.1 μM) (κ receptor [3]; compound 1 nM): −1%

CCOc1ccc2c3c1OC1C(OC4OC(C(=O)NCCSSCCNC(=O)C5OC(OC6C=CC7C8Cc9ccc(OCC)c%10c9C7(CCN8C)C6O%10)C(O)C(O)C5O)C(O)C(O)C4O)C=CC4C(C2)N(C)CCC341 (centres unmarked) [M3Et-6G-cya-cya-M3Et-6G]
antagonist activity: response in % of the response control at U-69593 (0.1 μM) (κ receptor [3]; compound 0.03 μM): 100%
antagonist activity: response in % of the response control at U-69593 (0.1 μM) (κ receptor [3]; compound 0.3 μM): 100%
antagonist activity: response in % of the response control at U-69593 (0.1 μM) (κ receptor [3]; compound 3 μM): 92%
antagonist activity: response in % of the response control at U-69593 (0.1 μM) (κ receptor [3]; compound 30 μM): 71%
agonist/antagonist behaviour on κ receptor (κ receptor [3]; in words): behaves as a κ receptor antagonist
improvement of affinity for κ receptors (factor) (κ receptors; compared with morphine): 6
Ki (κ receptors): 25 nM
Ki (δ receptors): > 1000 nM
Ki (human μ receptors): 14 nM
AUC, tail flick test ([1]; dose 0.5 mg/kg iv): 617.79
AUC, tail flick test ([1]; dose 1 mg/kg iv): 1233.75
AUC, tail flick test ([1]; dose 2 mg/kg iv): 4824.51
AUC, tail flick test ([1]; dose 4 mg/kg iv): 5915.16
AUC, tail flick test ([1]; dose 8 mg/kg iv): 5817.46
duration of the analgesic activity compared with morphine [1]: much longer
duration of maximum analgesic activity ([1]; injected at two-fold ED50, no supplementary dose): at least 6 hours
ED50 [1]: 1.32 mg/kg
Max Effect (time), tail flick test [1]: 120 min
agonist activity: response in % of the response control at U-69593 (κ receptor [4]): 0% and −4% and −3%
transit inhibition ([5]; at the maximal analgesic effect after iv injection at ED50): about 90%
analgesia when transit speed becomes normal ([5]; between 10 and 12 hours after injection): 50%
effect on transit while analgesic activity is maintained at maximum ([5]; in words): transit only slows down
ED50 [2]: 1.35 mg/kg
Effet max (time), hot plate test [2]: 120 min

CCOc1ccc2c3c1O[C@H]1[C@@H](O[C@@H]4O[C@H](C(=O)NCCSSCCC(=O)Nc5cccc6c7c([nH]c56)[C@@H]5Oc6c(O)ccc8c6[C@@]56CCN(CC5CC5)[C@H](C8)[C@]6(O)C7)[C@@H](O)[C@H](O)[C@H]4O)C=CC4[C@@H](C2)N(C)CC[C@@]341 (some centres unmarked) [M3Et-6G-cya-3MP-NTI]
AUC, tail flick test ([1]; dose 2 mg/kg iv): 2576
AUC, tail flick test ([1]; dose 4 mg/kg iv): 4410
AUC, tail flick test ([1]; dose 8 mg/kg iv): 5733
ED50 [1]: 2.9 mg/kg
Max Effect (time), tail flick test [1]: 120 min

COc1ccc2c3c1OC1C(OC4OC(C(=O)NCCS)C(O)C(O)C4O)C=CC4C(C2)N(C)CCC341 (centres unmarked) [Compound C6G-cya]
Ki (κ receptors): 100 nM
activity of the 3-methoxy substituted compound [6]: inactive
toxicity of the 3-methoxy substituted compound [6]: toxic
Ki (human μ receptors): 11 nM
